The values that follow come from article PMC10455239, “Antimicrobial, Cytotoxic, and α-Glucosidase Inhibitory Activities of Ethanol Extract and Chemical Constituents Isolated from Homotrigona apicalis Propolis—In Vitro and Molecular Docking Studies” (Life, 2023).

Converted amounts (≈) assume the structure as drawn. Read-outs that look alike come from different tables or passages of the source.

Test [1] deals with A-549 (human lung adenocarcinoma). The test is described as follows: Cytotoxicity assay (MTT). As to conditions: A549, MTT, 48 h incubation, read-out: IC50 A-549. The test is classed as cell-based. On the procedure: (§1) The cytotoxic assays were evaluated in triplicate against three cancer cell lines, namely KB (epidermal carcinoma), A-549 (human lung adenocarcinoma), and HepG-2 (human hepatoma) (ATCC), with a modification of the previously published method. The cells were cultured in Dulbecco’s D-MEM medium (Gibco, Life Technologies Corporation, Grand Island, NY, USA), supplemented with 10% fetal calf serum (Sigma-Aldrich, St. Loius, MO, USA), L-glutamine (2 mM) (Sigma-Aldrich, St. Loius, MO, USA), penicillin G (100 UI/mL), and streptomycin (100 μg/mL) (Sigma-Aldrich, St. Loius, MO, USA). The compound solutions were prepared in DMSO, and the cytotoxic assays were conducted in 96-well microtiter plates against the cancer cells (3 × 10^5 cells/mL concentration). After 48 h incubation at 37 °C in an air/CO2 (95:5) atmosphere, with or without isolated compounds, MTT reagent was added to each well (0.5 mg/mL). The cell growth was assessed by measuring the colorimetric of formazan at 570 nm using a microplate reader. […] Ellipticine was used as a positive reference.

The next test deals with HepG-2 (human hepatoma). Put plainly: Cytotoxicity assay (MTT). As to conditions: HepG2, MTT, 48 h incubation, read-out: IC50 Hep-G2. Format: cell-based. The method, then: as §1
Another test deals with KB (epidermal carcinoma). The test is described as follows: Cytotoxicity assay (MTT). Particulars: MTT, 48 h incubation; read-out: IC50 KB. Format: cell-based. On the procedure: as §1
Test [2] deals with T1, α-glucosidase (Saccharomyces cerevisiae, UniProt P53341).
T1 construct: purchased Sigma-Aldrich G0660
T1 sequence (P53341 whole entry): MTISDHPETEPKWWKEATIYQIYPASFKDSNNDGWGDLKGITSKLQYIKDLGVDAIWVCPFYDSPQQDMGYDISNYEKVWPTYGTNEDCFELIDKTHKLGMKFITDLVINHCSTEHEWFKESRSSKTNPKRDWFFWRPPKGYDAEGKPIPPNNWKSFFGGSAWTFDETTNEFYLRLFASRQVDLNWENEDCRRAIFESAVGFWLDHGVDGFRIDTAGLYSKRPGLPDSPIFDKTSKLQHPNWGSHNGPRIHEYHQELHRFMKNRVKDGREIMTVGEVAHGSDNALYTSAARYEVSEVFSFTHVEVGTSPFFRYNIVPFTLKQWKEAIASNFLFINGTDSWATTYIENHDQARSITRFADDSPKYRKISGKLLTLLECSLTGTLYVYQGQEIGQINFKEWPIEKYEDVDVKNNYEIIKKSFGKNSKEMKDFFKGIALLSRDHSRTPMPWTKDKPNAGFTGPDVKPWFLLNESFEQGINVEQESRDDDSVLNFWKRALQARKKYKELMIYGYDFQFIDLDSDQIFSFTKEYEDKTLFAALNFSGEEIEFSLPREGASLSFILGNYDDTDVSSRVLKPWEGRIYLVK
The test is described as follows: biochemical. The method, then:
An assay for the α-glucosidase inhibitory activity was carried out by a modification of the published method. Briefly, solutions of α-glucosidase (Saccharomyces cerevisiae, G0660, Sigma-Aldrich, St. Louis, MO, USA) and p-nitrophenyl α-D-glucopyranoside (Sigma-Aldrich, St. Louis, MO, USA) were prepared in a phosphate buffer (100 mM, pH 6.8, Sigma-Aldrich, St. Louis, MO, USA). […] The compound solution (2 μL) and 40 µL of enzyme solution (0.5 U/mL) in 120 µL phosphate buffer were mixed. After 5 min of preincubation, 20 µL of 10 mM p-nitrophenyl α-D-glucopyranoside prepared in phosphate buffer was added, and the reaction mixture was incubated for 30 min at 37 °C. The reaction was quenched by the addition of 80 µL of 0.2 M Na2CO3. The absorbance of the released p-nitrophenol was measured at 410 nm using a Biotek reader. The % inhibition was calculated using the following equation:Inhibition (%) = [1 − (Asample/Acontrol)] ∗ 100
The IC50 values of the isolated compounds were calculated using the program Table Curve.

Test [3] has as its system Gram (+) bacterial strains. Put plainly: Antibacterial activity, range over strains. The test is classed as cell-based. As to conditions: range over strains and compounds. On the procedure: (§2) The antimicrobial activity assay was performed using the broth microdilution method. Dimethyl sulfoxide (DMSO) was used for the preparation of compound solutions at concentrations of 256 μg/mL, 64 μg/mL, 16 μg/mL, 4 μg/mL, and 1 μg/mL. Three strains of Gram-positive bacteria (Staphylococcus aureus, Bacillus cereus, and Lactobacillus fermentum); three strains of Gram-negative bacteria (Salmonella enterica, Escherichia coli, and Pseudomonas aeruginosa), and fungus Candida albicans (obtained from the American Type Culture Collection (ATCC)) were used for the test. Ampicillin, Cefotaxim, and Nystatin were used as positive controls for the Gram (+) bacterial and Gram (−) bacterial strains and C. albicans, respectively. The activity of the isolated compounds was expressed as an IC50 value (half-maximal inhibitory concentration). The IC50 values were calculated using the program […].

Test [4] concerns the target α-glucosidase. Particulars: cited from earlier work.
A further test has as its system Pseudomonas aeruginosa. The test is described as follows: Antimicrobial activity, broth microdilution. The test is classed as cell-based. Particulars: Pseudomonas aeruginosa; Gram (−) strain; read-out: IC50 P. aeruginosa. On the procedure:
as §2
In general terms: Broth dilution looks for growth in wells or tubes with falling amounts of substance.

A further test deals with Candida albicans. Put plainly: Antimicrobial activity, broth microdilution. The test is classed as cell-based. As to conditions: Candida albicans; Fungus; read-out: IC50 C. albicans. The method, then: as §2
A further test deals with Lactobacillus fermentum. Put plainly: Antimicrobial activity, broth microdilution. The test is classed as cell-based. As to conditions: Gram (+) strain; read-out: IC50 L. fermentum. The method, then: as §2
Another test deals with Staphylococcus aureus. Put plainly: Antimicrobial activity, broth microdilution. Format: cell-based. As to conditions: Gram (+) strain, read-out: IC50 S. aureus. On the procedure: as §2
Another test deals with Salmonella enterica. The test is described as follows: Antimicrobial activity, broth microdilution. Format: cell-based. As to conditions: Salmonella enterica; Gram (−) strain; read-out: IC50 S. enterica. On the procedure: as §2
The test system of another test is Escherichia coli. Put plainly: Antimicrobial activity, broth microdilution. The test is classed as cell-based. As to conditions: Escherichia coli; Gram (−) strain; read-out: IC50 E. coli. On the procedure:
as §2

For the next test, the system named is Bacillus cereus. Put plainly: Antimicrobial activity, broth microdilution. Format: cell-based. Particulars: Gram (+) strain, read-out: IC50 B. cereus. On the procedure:
as §2

In test [5] the test system is KB, HepG-2, and A-549 cancer cell lines. The test is described as follows: Cytotoxicity assay (MTT), range over the three cell lines. As to conditions: range over three cell lines and both xanthones. The test is classed as cell-based. The method, then: as §1

Usually IC50 stands for the concentration that gives 50% inhibition.

With `COc1c(O)cc2oc3cc(O)c(CC=C(C)C)c(O)c3c(=O)c2c1CC=C(C)C` [Compound 9, α-mangostin], the IC50 in test [1] was 7.55 ± 0.25 µg/mL (≈ 18.4 µM); with HepG-2 (human hepatoma), 12.9 ± 0.68 µg/mL (≈ 31.4 µM); in the test with KB (epidermal carcinoma), 9.28 ± 0.58 µg/mL (≈ 22.6 µM); against α-glucosidase [2] (IC50 (Table S1), Table S1, α-glucosidase) it was 4.63 µM; at α-glucosidase [2] (IC50 α-Glucosidase Inhibitory Activity, p-nitrophenyl α-D-glucopyranoside, pH 6.8, 37 °C), 4.63 µM; on α-glucosidase [2] (IC50 α-glucosidase, equivalent in μM, converted from μg/mL), 4.63 ± 0.24 µM. For the same compound, the IC50 in test [3] was 0.56 to 17.3 µg/mL (≈ 1.36 to 42.2 µM); at α-glucosidase [4] (ref 59 (Nam K. Nguyen et al.)) it was 11.4 ± 2.3 µM; on α-glucosidase [4] (ref 60 (H. W. Ryu et al.)), 5 ± 0.1 µM; in the test with Pseudomonas aeruginosa it was 1.22 ± 0.09 µg/mL (≈ 2.97 µM); in the test with Candida albicans it was 0.56 ± 0.06 µg/mL (≈ 1.36 µM); in the test on Lactobacillus fermentum, 0.56 ± 0.09 µg/mL (≈ 1.36 µM). The IC50 is 0.54 ± 0.07 µg/mL (≈ 1.32 µM) in the test on Staphylococcus aureus; 16.3 ± 0.78 µg/mL (≈ 39.8 µM) with Salmonella enterica; 7.89 ± 0.34 µg/mL (≈ 19.2 µM) in the test with Escherichia coli; 0.57 ± 0.07 µg/mL (≈ 1.39 µM) in the test on Bacillus cereus; 7.55 to 29.3 µg/mL (≈ 18.4 to 71.3 µM) in [5].
